Experimental data taken from patent US20060004029A1, “Nitrogen-containing aromatic derivatives” (priority 2003, published 2006).

What was measured:
[1] = tested on: Human Umbilical Vein Endothelial Cells (HUVECs); assay: Inhibition against sandwich tube formation by vascular endothelial cells, FGF2-stimulated; assay type: cell-based; conditions: HUVEC, 20 ng/ml FGF2 and 10 ng/ml EGF, 4th day after addition
Experimental: (§1) Human Umbilical Vein Endothelial Cells (HUVECs) were isolated according to a reported method (Shinseikagaku Jikken Koza [New Biochemistry Experiment Lectures], “Saibo Baiyo Gijutsu” [Cell Culturing Techniques], p. 197-202), • and were cultured in a 5% CO2 incubator (37° C.) using EGM-2 medium (purchased from Clonetics Corp.) until the cells reached confluency.
(§2) An ice-cooled mixture of collagen: 5×RPMI 1640: reconstitution buffer (all purchased from Nitta Gelatin, Inc.) at 7:2:1 was dispensed at 0.4 ml into each well of a 24-well plate. After the solution was gelled by being stationed for 40 minutes in a 5% CO2 incubator (37° C.), HUVEC cell suspension was added at 0.4 ml to each well (using 1 to 1.2×10^5 cells, though the numbers of cells differ slightly according to the HUVEC lot), the HUVEC cell suspension being in human endothelial serum free medium (SFM, purchased from GIBCO BRL) containing added angiogenesis factors [20 ng/ml FGF2 (purchased from GIBCO BRL) and 10 ng/ml EGF (purchased from GIBCO BRL), or 25 ng/ml VEGF (purchased from Wako Pure Chemical Industries Co., Ltd.) and 10 ng/ml EGF, or 30 ng/ml HGF (purchased from R&D Co.) and 10 ng/ml EGF], and cultured overnight in a 5% CO2 incubator (37° C.). On the following day, the medium on the upper layer was aspirated off, and then 0.4 ml of an ice-cooled mixture of collagen: 5×RPMI 1640: reconstitution buffer (all purchased from Nitta Gelatin, Inc.) at 7:2:1 was superposed into each well prior to stationing for 4 hours in a 5% CO2 incubator (37° C.) for gelling. After adding 1.5 ml of an SFM solution containing each of the aforementioned angiogenesis factors and a diluted test substance onto the upper layer, culturing was performed in a 5% CO2 incubator (37° C.). Upon aspirating off the culture supernatant in each well on the 4th day after addition of the test substance, 0.4 ml of a 3.3 mg/ml MTT solution dissolved in PBS (purchased from Sigma Corp.) was added to each well and culturing was performed for approximately 2 hours in a 5% CO2 incubator (37° C.). The tubes formed in the collagen gel of each well were stained by MTT, the tube images were loaded into a computer (Macintosh), and the total length of the tubes was determined by image analysis software “MacScope” (purchased from Mitani Corp.). The ratio of the total length of the tubes formed in the well containing the test substance with respect to the total length of the tubes formed in the well containing no test substance was expressed as a percentage, and the concentration of each test substance required for 50% inhibition of tube formation (IC50) was determined from the ratio value.

[2] = tested on: Human Umbilical Vein Endothelial Cells (HUVECs); assay: Inhibition against sandwich tube formation by vascular endothelial cells, VEGF-stimulated; assay type: cell-based; conditions: HUVEC, 25 ng/ml VEGF and 10 ng/ml EGF, 4th day after addition
Experimental: as §1, §2

[3] = tested on: KP-1/VEGF cells; assay: Antitumor activity on KP-1/VEGF cells in subcutaneous xenograft models; assay type: in vivo, mouse; conditions: oral twice a day, 2 weeks (5 days per week), Balb/c (nu/nu) mice
Experimental: VEGF high-expressing pancreatic cancer cells (KP-1/VEGF) suspended in PBS at a concentration of 1×10^7 cells/ml were transplanted under the right flank skin of 6-week-old female Balb/c (nu/nu) mice in a volume of 0.1 ml. When the tumor volume reached approximately 100 mm^3, the test substance was orally administered twice a day over a period of 2 weeks with a schedule of 5 days per week. The test substance was suspended in 0.5% methyl cellulose for an administered volume of 0.1 ml/10 g body weight. The tumor size was measured twice a week using a micrometer caliper. The tumor volume was determined by measuring the long and short diameters of the tumor with a micrometer caliper, and calculating ½×(long diameter×short diameter×short diameter). The experiment was conducted using 10 mice in the control (solvent-administered) group and 5 mice in each test substance-administered group.

Row | Structure (SMILES) | IC50 [1] [nM] | IC50 [2] [nM] | proportion of the tumor volume after administering test substance to that of control ([3]; 6 mg/kg/day) [%] | proportion of the tumor volume after administering test substance to that of control ([3]; 20 mg/kg/day) [%] | proportion of the tumor volume after administering test substance to that of control ([3]; 60 mg/kg/day) [%] | proportion of the tumor volume after administering test substance to that of control ([3]; 200 mg/kg/day) [%]
1 | CNC(=O)n1ccc2cc(Oc3ccnc(NC(=O)N4CCC(O)CC4)c3)ccc21 [Example 39, N1-Methyl-5-(2-((4-hydroxypiperidino)carbonyl)amino-4-pyridyl)oxy-1H-1-indolecarboxamide] | 470 | 5.1 |  |  |  | 
2 | CNC(=O)n1ccc2cc(Oc3ccnc(NC(=O)N4CCC(C)(O)CC4)c3)ccc21 [Example 41, 5-(2-(((4-Hydroxy-4-methylpiperidin-1-yl)carbonyl)amino)pyridin-4-yloxy)-1H-1-indole-1-carboxylic acid methylamide] | 250 | 2.1 |  |  |  | 
3 | CNC(=O)n1ccc2cc(Oc3ccnc(NC(=O)N4CCC(N5CCCC5)CC4)c3)ccc21 [Example 46, N1-Methyl-5-(2-(((4-(pyrrolidin-1-yl)piperidin-1-yl)carbonyl)amino)pyridin-4-yloxy)-1H-1-indolecarboxamide] | 470 | 7 | 77.7 | 59.3 | 60.0 | 36.2
4 | CNC(=O)n1ccc2cc(Oc3ccnc(NC(=O)N4CCC(N5CCCCC5)CC4)c3)ccc21 [Example 47, N1-Methyl-5-(2-(((4-(piperidin-1-yl)piperidin-1-yl)carbonyl)amino)pyridin-4-yloxy)-1H-1-indolecarboxamide] | 120 | 5.8 | 80.5 | 64.6 | 45.3 | 33.6
5 | CNC(=O)n1ccc2cc(Oc3ccnc(NC(=O)N4CCOCC4)c3)ccc21 [Example 53, N4-(4-(1-(Methylamino)carbonyl-1H-5-indolyl)oxy-2-pyridyl)-4-morpholinecarboxamide] | 440 | 6.7 | 73.1 | 60.4 | 48.4 | 37.9
